Test results from US20040171073A1, “Compounds for modulation of cholesterol transport” (Massachusetts Institute of Technology, priority 2002, published 2004).
Like-named read-outs stand apart in the source and are kept apart here.

Molecular target: T1, murine SR-BI (Mus musculus, UniProt Q61009)
T1 construct: expressed in transfected cells; host or cells: ldlA-7 (LDL receptor deficient Chinese hamster ovary cells)
T1 sequence (Q61009 1-509): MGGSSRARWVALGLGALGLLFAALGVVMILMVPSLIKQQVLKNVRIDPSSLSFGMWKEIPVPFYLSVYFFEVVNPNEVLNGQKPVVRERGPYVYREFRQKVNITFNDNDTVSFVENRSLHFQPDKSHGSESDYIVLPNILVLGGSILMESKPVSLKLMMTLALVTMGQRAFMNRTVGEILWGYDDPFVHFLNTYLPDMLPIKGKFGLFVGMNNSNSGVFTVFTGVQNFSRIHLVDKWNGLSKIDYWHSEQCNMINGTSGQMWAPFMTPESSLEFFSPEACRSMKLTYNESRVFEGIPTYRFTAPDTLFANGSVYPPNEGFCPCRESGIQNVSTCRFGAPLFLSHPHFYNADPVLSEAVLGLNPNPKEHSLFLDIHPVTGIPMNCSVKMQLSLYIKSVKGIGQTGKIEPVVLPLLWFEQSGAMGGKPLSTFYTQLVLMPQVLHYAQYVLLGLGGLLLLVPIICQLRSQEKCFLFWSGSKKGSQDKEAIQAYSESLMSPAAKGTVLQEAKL
Experiment: Uptake of DiI from DiI-HDL by ldlA[mSR-BI] cells (high throughput screen and concentration dependence)
Format: cell-based

[1] = Test 1, DiI uptake from DiI-HDL, compounds at nominal 10 micromolar, ldlA[mSR-BI] cells
[2] = Test 2, DiI uptake from DiI-HDL, compounds at nominal 10 micromolar, ldlA[mSR-BI] cells

Row | SMILES | ENDOHDL Test 1 (Test 1) | ENDOHDL Test 2 (Test 2) | also measured
1 | Cl.NCCc1nc2ccccc2[nH]1 [MIT 9952-25] | 1.21 | 1.69 | 
2 | O=C(O)CCNC(=O)c1ccccc1 [MIT 9952-94] | 1.21 | 1.22 | 
3 | CCN(CC(O)COc1ccccc1C(C)=O)S(=O)(=O)[O-].[Na+] (stereo not drawn) [MIT 9952-250] | 1.28 | 1.24 | 
4 | COc1ccc2nc(C(=O)[O-])sc2c1.[Na+] [MIT 9952-14] | 1.24 | 1.21 | 
5 | CCCCCOc1ccc(-c2ccc(C(=O)NC(NCc3ccccc3)C(Cl)(Cl)Cl)cc2)cc1 (stereo not drawn) [MIT 9952-247] | 0.63 | 0.64 | 
6 | CCc1nnc(N2CCN(c3ncnc4c3cnn4-c3ccccc3)CC2)s1 [MIT 9952-248] | 0.68 | 0.66 | 
7 | CCOC(=O)c1c(/N=C/c2ccccc2[N+](=O)[O-])sc2c1CCCC2 [MIT 9952-187] | 0.33 | 0.46 | 
8 | CCS(=O)(=O)C(=C(Nc1ccc(OC)cc1)Nc1ccc(OC)cc1)S(=O)(=O)CC [MIT 9952-220] | 1.13 | 1.25 | 
9 | O=C(CNS(=O)(=O)c1ccc([N+](=O)[O-])cc1)N/N=C/c1ccccc1 [MIT 9952-186] | 0.5 | 0.5 | 
10 | CCN1/C(=C/c2sc3ccccc3[n+]2CC)Sc2ccccc21.Cc1ccc(S(=O)(=O)[O-])cc1 [MIT 9952-267] | 0.57 | 1.11 | 
11 | O=C(O)C(Cc1ccccc1)N1C(=O)CSC1=S (stereo not drawn) [MIT 9952-202] | 1.23 | 1.11 | 
12 | Nc1cc2cccnc2c2ncccc12 [MIT 9952-341] |  |  | ENDOHDL Test 1 [1]: 0.61; ENDOHDL Test 2 [2]: 0.51
13 | O=C(NC(NC(=S)Nc1cccc([N+](=O)[O-])c1)C(Cl)(Cl)Cl)C(c1ccccc1)c1ccccc1 (stereo not drawn) [MIT 9952-327] |  |  | ENDOHDL Test 1 [1]: 0.4; ENDOHDL Test 2 [2]: 0.45
14 | O=C(NC(NC(=S)Nc1cc(C(F)(F)F)ccc1Cl)C(Cl)(Cl)Cl)c1ccco1 (stereo not drawn) [MIT 9952-90] | 0.62 | 0.61 | 
15 | O=C(NC(NC(=S)Nc1ccc(Cl)cc1Cl)C(Cl)(Cl)Cl)c1ccco1 (stereo not drawn) [MIT 9952-106] | 0.6 | 0.53 | 
16 | Cc1c([N+](=O)[O-])cc(C(=O)Nc2cccc(NC(=O)c3ccccc3)c2)cc1[N+](=O)[O-] [MIT 9952-235] | 0.62 | 0.33 | 
17 | CCOC1=C(C(C)=O)NC(c2ccc(OC)cc2)C(=S)N1 (stereo not drawn) [MIT 9952-278] | 0.71 | 0.67 | 
18 | C/C(=N\NC(=O)COc1ccc(I)cc1)c1cccs1 [MIT 9952-254] | 0.69 | 1.01 | 
19 | Cc1cc(C)c(CO)c(C)c1/C=N/Nc1ccc([N+](=O)[O-])cc1 [MIT 9952-283] |  |  | ENDOHDL Test 1 [1]: 0.53; ENDOHDL Test 2 [2]: 0.48
20 | O=C1CC(N2CCOCC2)C(=O)N1c1ccc(Br)cc1 (stereo not drawn) [MIT 9952-96] | 1.32 | 1.17 | 
21 | O=C(Nc1ccc2c(c1)OCO2)c1ccc2ccccc2c1 [MIT 9952-280] |  |  | ENDOHDL Test 1 [1]: 0.75; ENDOHDL Test 2 [2]: 0.67
22 | COc1cc2c(-c3ccccc3)c(C)oc2cc1/C=N/NC(N)=S [MIT 9952-206] | 0.56 | 0.52 | 
23 | CC(C)(C)c1ccc(C(=O)Nc2ccccc2C(=O)O)cc1 [MIT 9952-48] | 0.68 | 0.49 | 
24 | COc1ccc(NC(=O)c2cc([N+](=O)[O-])c(C)c([N+](=O)[O-])c2)cc1Cl [MIT 9952-226] | 0.5 | 0.56 | 
25 | CC1CC2(C)CC(C(=O)O2)C1C(=O)OCCOc1ccccc1 (stereo not drawn) [MIT 9952-109] | 1.19 | 1.75 | 
26 | NC(=O)N/N=C/c1ccc(-c2ccc([N+](=O)[O-])cc2)o1 [MIT 9952-126] | 0.55 | 0.53 | 

Row | SMILES | ENDOHDL Test 1 (Test 1) | ENDOHDL Test 2 (Test 2) | also measured
27 | CN(C)c1ccc(C(Cl)(c2ccc(N(C)C)cc2)C2CN3CCC2CC3)cc1.Cl (stereo not drawn) [MIT 9952-137] | 1.32 | 1.25 | 
28 | C#CCOC(=O)CCCC(=O)Nc1ccccc1[N+](=O)[O-] [MIT 9952-191] | 1.27 | 1.98 | 
29 | CC(=O)OCc1c(C)cc(C)c(/C=N/Nc2ccc([N+](=O)[O-])cc2)c1C [MIT 9952-273] | 0.51 | 0.48 | 
30 | COc1ccc(/C=C2/S/C(=N/c3ccccc3)NC2=O)c(OC)c1 [MIT 9952-88] | 0.73 | 0.77 | 
31 | O=C(/C=C/c1ccccc1)NC(NC(=S)Nc1cccc([N+](=O)[O-])c1)C(Cl)(Cl)Cl (stereo not drawn) [MIT 9952-100] | 0.5 | 0.51 | 
32 | Cc1cccc(N2C(=O)CN(C3CCOCC3)C2=O)c1 [MIT 9952-2] | 1.34 | 1.2 | 
33 | O=C(Nc1ccc(NC(=O)c2cccc([N+](=O)[O-])c2)c(Cl)c1)c1cccc([N+](=O)[O-])c1 [MIT 9952-162] | 0.55 | 0.4 | 
34 | CCSC(=O)C(NC1=C(C)C(=O)N1)c1ccccc1 (stereo not drawn) [MIT 9952-292] |  |  | ENDOHDL Test 1 [1]: 0.47; ENDOHDL Test 2 [2]: 0.58
35 | CCCCN1CCC(Cl)(c2ccccc2)C(C(=O)c2ccccc2)C1 (stereo not drawn) [MIT 9952-26] | 1.28 | 1.32 | 
36 | O=C(Nc1sc2c(c1C(=O)NCCc1ccc(O)cc1)CCCC2)c1ccccc1 [MIT 9952-296] |  |  | ENDOHDL Test 1 [1]: 0.63; ENDOHDL Test 2 [2]: 0.61
37 | C=CCN(CC=C)C(=O)Nc1ccccc1 [MIT 9952-251] | 0.52 | 0.57 | 
38 | FC(F)(F)c1cccc(N2N=C(/C=C/c3ccccc3)CC2c2ccccc2)c1 (stereo not drawn) [MIT 9952-147] | 0.63 | 0.53 | 
39 | O=C(Nc1ccc(-c2nc3ccccc3s2)cc1)c1ccc(Cl)cc1Cl [MIT 9952-284] |  |  | ENDOHDL Test 1 [1]: 0.65; ENDOHDL Test 2 [2]: 0.54
40 | Cl.c1ccc(CCNC2CCCc3c2[nH]c2ccc(C4CCCCC4)cc32)cc1 (stereo not drawn) [MIT 9952-258] | 0.51 | 1.0 | 
41 | CC(CC(=O)NCCc1c[nH]c2ccccc12)C(=O)Cl (stereo not drawn) [MIT 9952-12] | 1.25 | 1.26 | 
42 | O=C(Nc1cc(Cl)ccc1Cl)c1cc(Br)ccc1NS(=O)(=O)c1ccc(Cl)c([N+](=O)[O-])c1 [MIT 9952-132] |  |  | ENDOHDL Test 1: 0.65; ENDOHDL Test 2: 0.46
43 | CCN(CC)S(=O)(=O)c1cc(C(=O)Nc2ccc(Br)cc2)ccc1Br [MIT 9952-192] | 0.57 | 0.52 | 
44 | COc1ccc2c(c1)c(C(C)=O)c(C)n2-c1ccccc1 [MIT 9952-335] |  |  | ENDOHDL Test 1 [1]: 0.57; ENDOHDL Test 2 [2]: 0.49
45 | O=C(Nc1cccc(NC(=O)c2ccccc2Cl)c1)c1cccc([N+](=O)[O-])c1 [MIT 9952-337] |  |  | ENDOHDL Test 1 [1]: 0.6; ENDOHDL Test 2 [2]: 0.57
46 | Cc1cc(C)c(/C=N/N=C/c2c(C)cc(C)cc2C)c(C)c1 [MIT 9952-69] | 1.18 | 1.32 | 
47 | COc1ccc(NC(=O)Oc2cc(C(C)(C)C)cc(C(C)(C)C)c2)cc1Cl [MIT 9952-182] | 0.71 | 0.41 | 
48 | CCc1c2cccn2cc(C)[n+]1C.[I-] [MIT 9952-177] | 0.68 | 0.49 | 
49 | COc1ccccc1C(=O)NC(Nc1cccc2ccccc12)C(Cl)(Cl)Cl (stereo not drawn) [MIT 9952-134] | 0.58 | 0.59 | 
50 | CN1CCc2c(c3ccccc3n2-c2ccccc2)C1.Cl [MIT 9952-197] | 0.58 | 0.71 | 
51 | O=C(Nc1ccc(Cl)cc1C(=O)c1ccc(Cl)cc1)c1cc(Cl)ccc1NS(=O)(=O)c1ccc(Cl)cc1 [MIT 9952-45] | 0.44 | 0.46 | 
